Test results as given in patent US20030044399A1, “Method of treatment” (SmithKline Beecham Corporation, priority 1998, published 2003).

Assays:
Falcipain 2 = Falcipain 2 (Plasmodium falciparum, UniProt Q8I6U4); assay: Cysteine protease inhibition, progress curve method, falcipain; type: biochemical; details: 10 uM Cbz-Leu-Arg-AMC, 100 mM Na acetate pH 5.5, 5 mM cysteine
Summary of the method: (§1)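 Kinetic constants from AMC-release progress curves over 20–30 min at ambient temperature in 100 mM Na acetate pH 5.5, 5 mM cysteine, 2% DMSO; enzyme added last to inhibitor plus substrate. Substrates: 10 uM Cbz-Phe-Arg-AMC (Leishmania, Schistosoma), 10 uM Cbz-Leu-Arg-AMC (falcipain), 4 uM Ac-Lys-Glu-Lys-Leu-Arg-AMC (cruzain). Ki,app from linear curves; time-dependent inhibition as kobs/[I].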

Cruzain = Cruzain (Trypanosoma cruzi, UniProt P25779); assay: Cysteine protease inhibition, progress curve method, cruzain; type: biochemical; details: 4 uM Ac-Lys-Glu-Lys-Leu-Arg-AMC, 100 mM Na acetate pH 5.5, 5 mM cysteine; read-out: Cruzain Ki
Summary of the method: as §1

Rhodazain = Rhodazain (Trypanosoma brucei rhodesiense, UniProt Q95PM0); assay: Cysteine protease inhibition, progress curve method, rhodazain; type: biochemical, Trypanosoma brucei rhodesiensi; details: Rhodazain Ki (nM), 10 uM Cbz-Leu-Arg-AMC, 100 mM Na acetate pH 5.5, 5 mM cysteine
Leishmania B = molecular target: T1, Leishmania B (UniProt P90627); assay: Cysteine protease inhibition, progress curve method, leishmania B; type: biochemical, Leishmania spp; details: read-out: Leishmania B Ki nM; 10 uM Cbz-Phe-Arg-AMC, 100 mM Na acetate pH 5.5, 5 mM cysteine
T1 sequence (P90627 1-340): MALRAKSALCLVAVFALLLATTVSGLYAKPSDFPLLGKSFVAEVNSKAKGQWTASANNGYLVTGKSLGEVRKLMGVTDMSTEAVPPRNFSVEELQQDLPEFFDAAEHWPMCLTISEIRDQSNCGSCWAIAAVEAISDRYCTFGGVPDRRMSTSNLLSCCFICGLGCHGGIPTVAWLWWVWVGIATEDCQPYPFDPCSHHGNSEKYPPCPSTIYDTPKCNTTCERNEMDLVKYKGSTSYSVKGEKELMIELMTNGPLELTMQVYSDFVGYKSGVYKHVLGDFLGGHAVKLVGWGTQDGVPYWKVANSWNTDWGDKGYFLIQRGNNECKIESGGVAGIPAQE
Protocol: (§2) Standard assay conditions for the determination of kinetic constants used 10 uM fluorogenic peptide substrate, Cbz-Phe-Arg-AMC for the cysteine proteases from Leishmania spp and Schistosoma Mansoni, Cbz-Leu-Arg-AMC for the cysteine proteases from Plasmodium falciparum and Trypanosoma brucei rhodesiensi, and Ac-Lys-Glu-Lys-Leu-Arg-AMC (4 uM final substrate concentration) for the cysteine protease from Trypoanosoma cruzi, and were determined in 100 mM Na acetate at pH 5.5 containing 5 mM cysteine. Stock substrate solutions were prepared at concentrations of […] in DMSO with 10 uM (4 uM for Ac-Lys-Glu-Lys-Leu-Arg-AMC) final substrate concentration in the assays. The final DMSO concentration was 2% and the final volume was 100 uL. All assays were conducted at ambient temperature. Product progress curves were generated over 20 to 30 minutes following formation of AMC product.
(§3) Potential inhibitors were evaluated using the progress curve method. Assays were carried out in the presence of variable concentrations of test compound. Reactions were initiated by addition of enzyme to buffered solutions of inhibitor and substrate. Data analysis was conducted according to one of two procedures depending on the appearance of the progress curves in the presence of inhibitors. For those compounds whose progress curves were linear, apparent inhibition constants (Ki,app) were calculated according to equation 1 (Brandt et al., Biochemitsry, 1989, 28, 140):
(§4) v=VmA/[Ka(1+I/Ki,app)+A] (1)
(§5) Where v is the velocity of the reaction with maximal velocity Vm, A is the concentration of substrate with Michaelis constant of Ka, and I is the concentration of inhibitor.
(§6) [AMC]=vsst+(v0−vss)[1−exp (−kobst)]/kobs (2)
(§7) Where [AMC] is the concentration of product formed over time t, v0 is the initial reaction velocity and vss is the final steady state rate. Values for kobs were then analyzed as a linear function of inhibitor concentration to generate an apparent second order rate constant (kobs/inhibitor concentration or kobs/[I]) describing the time-dependent inhibition. A complete discussion of this kinetic treatment has been fully described (Morrison et al., Adv. Enzymol. Relat. Areas Mol. Biol., 1988, 61, 201).
(§8) Exemplary inhibition data for the compounds used in the present method collected in accordance with the above-described procedure are listed in Table I.

Schisto B 1 = Schisto B 1 (Schistosoma mansoni, UniProt P25792); assay: Cysteine protease inhibition, progress curve method, schistosoma B 1; type: biochemical; details: 10 uM Cbz-Phe-Arg-AMC, 100 mM Na acetate pH 5.5, 5 mM cysteine; read-out: Schisto B 1 Ki
Protocol: as §2, §3, §4, §5, §6, §7, §8

Schisto B 2 = Schisto B 2 (Schistosoma mansoni, UniProt Q95PM1); assay: Cysteine protease inhibition, progress curve method, schistosoma B 2; type: biochemical; details: 10 uM Cbz-Phe-Arg-AMC, 100 mM Na acetate pH 5.5, 5 mM cysteine
Protocol: as §2, §3, §4, §5, §6, §7, §8

Leishmania L = Leishmania L (Leishmania major, UniProt P90628); assay: Cysteine protease inhibition, progress curve method, leishmania L; type: biochemical, Leishmania spp; details: 10 uM Cbz-Phe-Arg-AMC, 100 mM Na acetate pH 5.5, 5 mM cysteine
Protocol: as §2, with “Product progress curves were generated over 20 to 30 minutes following formation of AMC product.” left out
Potential inhibitors were evaluated using the progress curve method. […] For those compounds whose progress curves were linear, apparent inhibition constants (Ki,app) were calculated according to equation 1 (Brandt et al., Biochemitsry, 1989, 28, 140): […]
as §7, with “A complete discussion of this kinetic treatment has been fully described (Morrison et al., Adv. Enzymol. Relat. Areas Mol. Biol., 1988, 61, 201).” left out

Schisto B 2, sequence (Q95PM1 entry or part of it): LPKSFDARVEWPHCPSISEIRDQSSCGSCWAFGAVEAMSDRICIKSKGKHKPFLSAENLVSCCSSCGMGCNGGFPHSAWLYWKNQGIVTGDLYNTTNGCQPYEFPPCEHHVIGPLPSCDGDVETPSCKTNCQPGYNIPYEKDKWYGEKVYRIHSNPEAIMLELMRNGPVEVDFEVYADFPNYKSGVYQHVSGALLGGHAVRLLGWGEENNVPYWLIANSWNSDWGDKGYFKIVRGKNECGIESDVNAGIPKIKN
Schisto B 1, sequence (P25792 89-340): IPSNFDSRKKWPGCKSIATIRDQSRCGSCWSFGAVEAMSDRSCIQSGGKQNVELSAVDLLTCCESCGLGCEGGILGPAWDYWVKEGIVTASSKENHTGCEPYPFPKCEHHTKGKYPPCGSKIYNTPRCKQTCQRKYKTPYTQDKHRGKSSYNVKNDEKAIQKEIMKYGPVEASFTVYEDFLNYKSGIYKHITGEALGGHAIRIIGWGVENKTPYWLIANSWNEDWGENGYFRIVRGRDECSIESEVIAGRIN
Rhodazain, sequence (Q95PM0 entry or part of it): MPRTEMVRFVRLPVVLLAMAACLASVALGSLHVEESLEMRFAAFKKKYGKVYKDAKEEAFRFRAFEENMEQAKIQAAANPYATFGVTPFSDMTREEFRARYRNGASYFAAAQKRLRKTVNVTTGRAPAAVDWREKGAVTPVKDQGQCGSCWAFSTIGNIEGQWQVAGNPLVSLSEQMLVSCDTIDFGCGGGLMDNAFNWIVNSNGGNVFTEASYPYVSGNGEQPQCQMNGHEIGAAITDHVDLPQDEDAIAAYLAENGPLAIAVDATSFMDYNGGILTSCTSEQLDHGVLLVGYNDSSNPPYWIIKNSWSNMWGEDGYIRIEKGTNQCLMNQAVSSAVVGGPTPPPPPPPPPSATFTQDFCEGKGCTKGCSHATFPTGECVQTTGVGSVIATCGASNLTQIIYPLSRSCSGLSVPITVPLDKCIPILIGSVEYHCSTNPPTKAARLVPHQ
Falcipain 2, sequence (Q8I6U4 244-484): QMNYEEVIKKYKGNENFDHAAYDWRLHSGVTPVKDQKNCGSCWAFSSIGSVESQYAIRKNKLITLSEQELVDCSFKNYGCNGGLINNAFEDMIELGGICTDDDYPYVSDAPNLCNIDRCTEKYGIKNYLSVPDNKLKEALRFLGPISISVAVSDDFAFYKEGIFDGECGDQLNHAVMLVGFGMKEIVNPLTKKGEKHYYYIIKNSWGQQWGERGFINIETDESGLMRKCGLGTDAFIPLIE
Leishmania L, sequence (P90628 126-443): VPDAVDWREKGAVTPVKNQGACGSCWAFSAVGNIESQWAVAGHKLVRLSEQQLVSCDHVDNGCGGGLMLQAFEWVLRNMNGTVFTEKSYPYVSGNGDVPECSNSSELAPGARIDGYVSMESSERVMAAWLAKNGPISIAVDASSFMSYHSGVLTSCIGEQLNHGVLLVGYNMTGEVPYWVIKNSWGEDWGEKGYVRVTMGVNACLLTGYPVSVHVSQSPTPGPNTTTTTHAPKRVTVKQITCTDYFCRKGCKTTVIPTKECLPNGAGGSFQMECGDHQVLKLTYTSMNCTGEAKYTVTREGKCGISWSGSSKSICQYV
Cruzain, sequence (P25779 123-337): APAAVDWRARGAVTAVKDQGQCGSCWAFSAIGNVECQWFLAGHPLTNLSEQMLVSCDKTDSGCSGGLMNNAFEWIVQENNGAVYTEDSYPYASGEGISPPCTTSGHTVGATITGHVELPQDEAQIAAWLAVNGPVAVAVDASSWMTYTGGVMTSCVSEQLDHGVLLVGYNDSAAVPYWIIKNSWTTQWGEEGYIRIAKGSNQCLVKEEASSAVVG

| Compound | Ki (Falcipain 2) [nM] | Ki (Cruzain) [nM] | Ki (Rhodazain) [nM] | Ki (Leishmania B) [nM] | Ki (Schisto B 1) [nM] | Ki (Schisto B 2) [nM] | Ki (Leishmania L) [nM] |
| --- | --- | --- | --- | --- | --- | --- | --- |
| CC(C)C[C@H](NC(=O)c1cc2sccc2s1)C(=O)N[C@H]1C[C@H](C)CN(S(=O)(=O)c2ccccn2)CC1=O [Example 200, Thieno[3,2-]thiophene-2-carboxylic acid {(S)-3-methyl-1-[6-methyl-3-oxo-1-(pyridine-2-sulfonyl)-azepan-4-ylcarbamoyl]-butyl}-amide] | 4.1 | 2.7 | 2.3 | 4.7 | 63 | 65 | – |
| O=C(N[C@@H](Cc1ccc2ccccc2c1)C(=O)NC1CCCN(S(=O)(=O)c2ccccn2)CC1=O)c1cccc2ccccc12 (single isomer, unassigned) [Example 188] | – | – | 4 | 2.8 | 24 | 22 | – |
| CC(C)CC(NC(=O)c1cc2ccccc2o1)C(=O)NC1CC[C@@H](C)N(S(=O)(=O)c2ccccn2)CC1=O (single isomer, unassigned) [Example 182] | – | – | 1.1 | 4.3 | 61 | 45 | – |
| Naphthlene-2-carboxylic acid ((S)-3-methyl-1-{3-oxo-1-[2-(3-pyridin-2-yl-phenyl)ethyl]-azepan-4-ylcarbamoyl}-butyl)amide [Example 10] | – | – | – | – | – | – | 82 |
